Data on 20 compounds can be found in patent US10968210B2, “Diamino-alkylamino-linked arylsulfonamide compounds with selective activity in voltage-gated sodium channels” (Merck Sharp & Dohme Corp., priority 2016, dated 2021).

A value given as a limit tells only on which side of the number the result lay.

In test [1] the target is T1, human Nav 1.7 channels stably expressed in HEK 293 cells (Homo sapiens, UniProt Q15858).
T1 construct: expressed in transfected cells; host or cells: HEK 293
Kind of test: IonWorks Quattro automated patch-clamp, inactivated state block of Nav 1.7. The note with it: double-pulse protocol, HEK 293 cells held at -100 mV, read-out: potency for the Nav 1.7 sodium ion channel (IC50, IonWorks). Format: cell-based. In a few lines: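 Inactivated-state block was recorded by automated perforated patch (nystatin plus amphotericin) using a double-pulse protocol. Holding was −100 mV (Nav1.7) or −110 mV (Nav1.5), with a 1000 ms prepulse to −10/−30 mV giving ~50% inactivation, then a 10 ms test pulse. IC50s came from Hill fits of peak current inhibition.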

Test [2] deals with T2, human Nav 1.5 channels stably expressed in HEK 293 cells (Homo sapiens, UniProt Q14524).
T2 construct: expressed in transfected cells; host or cells: HEK 293
Kind of test: IonWorks Quattro automated patch-clamp, inactivated state block of Nav 1.5 (reported as ratio to Nav 1.7 potency). Format: cell-based. The note with it: selectivity for Nav 1.7 over Nav 1.5, both by IonWorks. On the procedure: IonWorks® Experimental Procedure
Compounds were tested on human Nav 1.7 and Nav 1.5 channels stably expressed in HEK 293 cells. Sodium current measurements on IonWorks Quattro: An automated patch-clamp assay on the IonWorks Quattro platform (Molecular Devices) was used to measure state-dependent inhibition of human Nav 1.7 and Nav 1.5 channels. Cells were sealed on a planar substrate using the Population Patch Plate (PPC) technology. Electrical access was obtained using both nystatin and amphotericin. A double-pulse protocol was used for the determination of IC50 values for inactivated state block. Nav 1.7 and Nav 1.5 expressing cells were voltage clamped at −100 mV and −110 mV, respectively. A depolarizing prepulse to −10 mV (Nav 1.7) or −30 mV (Nav 1.5) for 1000 ms followed by a 10 ms repolarization to ˜100 mV (Nav1.7) or −110 mV (Nav 1.5) was given to generate fractional channel inactivation of ˜50%, followed by a 10 ms test pulse to −10 mV (Nav 1.7) or −30 mV (Nav 1.5) to measure peak current in control conditions and after compound addition. The following recording solutions were used (mM). External: 150 NaCl, 2 CaCl2, 5 KCl, 1 Mg Cl2, 10 HEPES, 12 Dextrose; internal: 120 CsF, 30 CsCl, 10 EGTA, 5 HEPES, 5 NaF, 2 MgCl2.
For all electrophysiology experiments, offline analysis was used to determine percent inhibition as a function of drug concentration. IC50 values were determined by fitting to the Hill equation.
The various compounds in Examples 1 through 4 and Tables 1 through 3 exemplified above were assayed for activity and selectivity using the foregoing IonWorks® technique. The results are reported in the following paragraph in a format expressing the identification of the compound with reference Example and compound (e.g. Ex 1-9 is Example 1, compound 9) followed by the observed potency in nM and the ratio of Nav1.7 potency: Nav1.5 potency as described here. Thus, Ex1-9: 1.7=65/ratio=641 identifies compound Example 1, compound 9 as having 65 nM potency for the Nav 1.7 sodium ion channel (as measured by IonWorks®) and a ratio of 641 Nav 1.7: Nav 1.5 potency, determined by IonWorks® measurement.
For orientation: The patch-clamp technique gives a direct electrical read-out from membranes.

T1 sequence (Q15858 whole entry): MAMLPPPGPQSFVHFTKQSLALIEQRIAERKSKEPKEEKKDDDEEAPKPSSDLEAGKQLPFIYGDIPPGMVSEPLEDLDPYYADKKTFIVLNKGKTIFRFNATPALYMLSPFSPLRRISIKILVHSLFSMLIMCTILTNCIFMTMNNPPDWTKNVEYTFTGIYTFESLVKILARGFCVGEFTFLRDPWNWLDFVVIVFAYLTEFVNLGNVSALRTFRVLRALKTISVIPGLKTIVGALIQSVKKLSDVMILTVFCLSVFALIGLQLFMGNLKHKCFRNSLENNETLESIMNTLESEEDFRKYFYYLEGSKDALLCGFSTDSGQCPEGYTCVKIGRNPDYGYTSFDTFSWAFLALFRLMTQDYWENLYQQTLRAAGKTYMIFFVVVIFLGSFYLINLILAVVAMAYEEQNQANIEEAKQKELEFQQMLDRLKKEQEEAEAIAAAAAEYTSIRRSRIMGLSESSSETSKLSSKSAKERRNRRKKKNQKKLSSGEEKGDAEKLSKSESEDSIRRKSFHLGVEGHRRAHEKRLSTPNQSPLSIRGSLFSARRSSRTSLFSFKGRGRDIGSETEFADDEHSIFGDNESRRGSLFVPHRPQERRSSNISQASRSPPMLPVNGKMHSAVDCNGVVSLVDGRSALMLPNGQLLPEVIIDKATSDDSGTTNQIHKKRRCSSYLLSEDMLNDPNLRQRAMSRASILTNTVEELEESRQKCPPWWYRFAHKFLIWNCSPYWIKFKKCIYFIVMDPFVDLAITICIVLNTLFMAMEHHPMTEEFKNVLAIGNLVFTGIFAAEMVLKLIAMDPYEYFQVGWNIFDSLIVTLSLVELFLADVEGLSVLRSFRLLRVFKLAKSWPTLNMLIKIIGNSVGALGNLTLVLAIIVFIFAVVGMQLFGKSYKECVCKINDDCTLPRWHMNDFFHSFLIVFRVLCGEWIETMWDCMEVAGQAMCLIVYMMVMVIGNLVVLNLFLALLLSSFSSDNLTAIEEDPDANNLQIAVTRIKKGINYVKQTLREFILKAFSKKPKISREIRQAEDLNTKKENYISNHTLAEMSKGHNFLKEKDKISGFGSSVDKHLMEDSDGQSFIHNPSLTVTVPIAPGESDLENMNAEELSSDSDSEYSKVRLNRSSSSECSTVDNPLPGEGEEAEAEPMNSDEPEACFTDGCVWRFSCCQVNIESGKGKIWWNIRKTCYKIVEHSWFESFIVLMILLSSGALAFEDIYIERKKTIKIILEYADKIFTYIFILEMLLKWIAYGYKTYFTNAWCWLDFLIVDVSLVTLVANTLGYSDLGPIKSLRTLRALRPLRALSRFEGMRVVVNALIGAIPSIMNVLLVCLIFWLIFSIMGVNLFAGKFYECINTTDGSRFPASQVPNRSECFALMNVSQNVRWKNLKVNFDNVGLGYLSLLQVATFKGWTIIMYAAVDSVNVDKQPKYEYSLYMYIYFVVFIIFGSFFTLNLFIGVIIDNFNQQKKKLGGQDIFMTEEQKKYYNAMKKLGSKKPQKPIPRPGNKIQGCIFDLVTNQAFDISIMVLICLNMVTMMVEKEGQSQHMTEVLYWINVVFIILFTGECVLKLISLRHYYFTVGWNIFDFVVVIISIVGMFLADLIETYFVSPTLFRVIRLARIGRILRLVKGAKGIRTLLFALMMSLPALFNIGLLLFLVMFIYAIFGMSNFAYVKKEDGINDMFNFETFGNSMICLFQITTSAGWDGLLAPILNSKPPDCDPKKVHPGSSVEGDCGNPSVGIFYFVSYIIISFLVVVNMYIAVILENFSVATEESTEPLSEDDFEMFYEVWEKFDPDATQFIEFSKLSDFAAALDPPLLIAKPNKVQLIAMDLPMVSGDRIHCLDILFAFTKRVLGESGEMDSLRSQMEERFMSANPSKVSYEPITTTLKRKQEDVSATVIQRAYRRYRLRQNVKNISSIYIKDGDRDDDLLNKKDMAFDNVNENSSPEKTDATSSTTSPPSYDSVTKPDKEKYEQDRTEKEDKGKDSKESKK
T2 sequence (Q14524 whole entry): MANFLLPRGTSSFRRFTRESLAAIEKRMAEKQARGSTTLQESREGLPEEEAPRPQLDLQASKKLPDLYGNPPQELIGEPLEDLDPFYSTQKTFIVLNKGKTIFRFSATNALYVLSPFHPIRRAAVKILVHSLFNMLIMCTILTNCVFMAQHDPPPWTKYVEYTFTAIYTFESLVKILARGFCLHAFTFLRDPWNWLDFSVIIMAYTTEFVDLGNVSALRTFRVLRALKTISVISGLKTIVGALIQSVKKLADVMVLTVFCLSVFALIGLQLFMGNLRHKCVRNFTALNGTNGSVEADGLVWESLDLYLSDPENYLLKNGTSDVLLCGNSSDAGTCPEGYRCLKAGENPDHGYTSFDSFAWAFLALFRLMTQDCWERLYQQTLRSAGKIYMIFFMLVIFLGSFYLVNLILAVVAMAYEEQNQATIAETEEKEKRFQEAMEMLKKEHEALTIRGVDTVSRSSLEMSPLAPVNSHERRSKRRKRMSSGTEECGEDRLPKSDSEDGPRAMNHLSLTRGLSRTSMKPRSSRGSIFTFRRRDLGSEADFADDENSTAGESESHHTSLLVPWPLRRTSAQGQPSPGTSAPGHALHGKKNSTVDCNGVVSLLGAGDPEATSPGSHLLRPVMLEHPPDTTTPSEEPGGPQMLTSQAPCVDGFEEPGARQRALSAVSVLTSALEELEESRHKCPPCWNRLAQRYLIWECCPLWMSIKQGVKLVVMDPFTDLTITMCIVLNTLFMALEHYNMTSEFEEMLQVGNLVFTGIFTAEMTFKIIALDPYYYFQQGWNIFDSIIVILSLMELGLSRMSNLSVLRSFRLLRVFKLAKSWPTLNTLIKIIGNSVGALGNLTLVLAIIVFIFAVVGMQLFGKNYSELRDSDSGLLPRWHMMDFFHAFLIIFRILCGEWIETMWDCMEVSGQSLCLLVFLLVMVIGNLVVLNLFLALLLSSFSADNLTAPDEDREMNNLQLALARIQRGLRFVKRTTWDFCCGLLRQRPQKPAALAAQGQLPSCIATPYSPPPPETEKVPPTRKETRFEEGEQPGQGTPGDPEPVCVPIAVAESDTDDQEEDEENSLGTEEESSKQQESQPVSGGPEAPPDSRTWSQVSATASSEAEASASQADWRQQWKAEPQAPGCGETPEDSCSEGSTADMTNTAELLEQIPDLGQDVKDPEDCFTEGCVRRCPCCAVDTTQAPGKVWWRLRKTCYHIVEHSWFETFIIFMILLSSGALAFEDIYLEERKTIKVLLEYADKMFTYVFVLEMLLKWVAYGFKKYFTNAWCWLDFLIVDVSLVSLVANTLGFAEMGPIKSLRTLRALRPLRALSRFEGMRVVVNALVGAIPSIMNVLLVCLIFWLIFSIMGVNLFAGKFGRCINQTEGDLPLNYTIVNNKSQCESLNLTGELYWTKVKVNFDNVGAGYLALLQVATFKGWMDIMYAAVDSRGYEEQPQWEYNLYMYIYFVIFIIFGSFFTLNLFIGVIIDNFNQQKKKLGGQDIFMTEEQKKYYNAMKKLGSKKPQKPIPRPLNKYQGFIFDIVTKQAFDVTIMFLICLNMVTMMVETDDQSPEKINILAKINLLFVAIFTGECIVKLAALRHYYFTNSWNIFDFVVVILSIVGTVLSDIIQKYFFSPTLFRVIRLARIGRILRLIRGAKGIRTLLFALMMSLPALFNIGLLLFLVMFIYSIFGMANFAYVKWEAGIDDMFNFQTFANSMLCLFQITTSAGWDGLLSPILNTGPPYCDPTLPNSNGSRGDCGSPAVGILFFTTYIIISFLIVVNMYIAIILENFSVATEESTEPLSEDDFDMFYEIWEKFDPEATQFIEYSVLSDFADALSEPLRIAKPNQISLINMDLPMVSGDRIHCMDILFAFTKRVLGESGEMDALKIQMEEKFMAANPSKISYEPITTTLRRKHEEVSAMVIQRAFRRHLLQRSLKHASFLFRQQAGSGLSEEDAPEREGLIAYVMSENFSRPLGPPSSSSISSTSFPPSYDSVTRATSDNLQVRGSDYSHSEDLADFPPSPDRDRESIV

The term IC50 denotes the concentration that gives 50% inhibition. On to `O=S(=O)(Nc1nccs1)c1cc(Cl)c(NCCCCN2C[C@H]3CNCC[C@H]3C2)cc1F` [Ex 1-23, 5-chloro-2-fluoro-4-({4-[(3aR,7aR)-octahydro-2H-pyrrolo[3,4-c]pyridin-2-yl]butyl}amino)-N-1,3-thiazol-2-ylbenzenesulfonamide], for which the IC50 in test [1] amounted to 43 nM. Moreover, in test [2], the “ratio of Nav 1.7 : Nav 1.5 potency (IonWorks)” value (“ratio” for short) is reported as more than 770.

Turning to `O=S(=O)(Nc1ncc(F)s1)c1cc(Cl)c(NCCCCNCCNC2C3CC4CC(C3)CC2C4)cc1F` (stereo not shown) [Ex 16-07, 5-chloro-2-fluoro-N-(5-fluoro-1,3-thiazol-2-yl)-4-[(4-{[2-(tricyclo[3.3.1.1~3,7~]dec-2-yl-amino)-ethyl]amino}butyl)-amino]-benzene-sulfonamide], the half-maximal inhibitory concentration (IC50) in test [1] was 1.9 nM. In addition, the “ratio” value in test [2] is listed as more than 17400.

For `O=S(=O)(Nc1nccs1)c1cc(Cl)c(NCCCCNCC2Cc3ccccc3CN2)cc1F` (single isomer, unassigned) [Ex 1-18, (R or S)-5-chloro-2-fluoro-4-({4-[(1,2,3,4-tetrahydroisoquinolin-3-ylmethyl)amino]butyl}amino)-N-1,3-thiazol-2-ylbenzenesulfonamide], the IC50 in test [1] was 7.9 nM. Further, the “ratio” value in test [2] was more than 4177.

`O=S(=O)(Nc1nccs1)c1ccc(NCCCCNC[C@@H]2CCCN2)c(Cl)c1` [Ex 7-12, 3-chloro-4-[(4-{[(2S)-pyrrolidin-2-ylmethyl]amino}butyl)amino]-N-1,3-thiazol-2-ylbenzenesulfonamide]: the IC50 in test [1] came to 27 nM. In addition, in test [2], the “ratio” value is recorded as more than 1200.

Regarding `O=S(=O)(Nc1nccs1)c1cc(Cl)c(NC[C@H]2C[C@@H]3CN(C[C@@H]4CCCN4)C[C@@H]3C2)cc1F` [Ex 6-8, 5-chloro-2-fluoro-4-[({(3aR,5R,6aS)-2-[(2S)-pyrrolidin-2-ylmethyl]octahydrocyclopenta[c]pyrrol-5-yl}methyl)amino]-N-1,3-thiazol-2-ylbenzenesulfonamide], the IC50 in test [1] came to 39 nM. In addition, the “ratio” value in test [2] is recorded as more than 850.

`NCC1(c2ccccc2)CCN(CCCCNc2cc(F)c(S(=O)(=O)Nc3nccs3)cc2Cl)C1` (stereo not shown) [Ex 1-50, 4-({4-[3-(aminomethyl)-3-phenylpyrrolidin-1-yl]butyl}amino)-5-chloro-2-fluoro-N-1,3-thiazol-2-ylbenzenesulfonamide]: the IC50 in test [1] came to 46 nM. Also, the “ratio” value in test [2] is on record as more than 717.

Turning to `O=S(=O)(Nc1nccs1)c1cc(Cl)c(NCCCCN2CCC3CNCC3C2)cc1F` (stereo not shown) [Ex 1-48, 5-chloro-2-fluoro-4-{[4-(octahydro-5H-pyrrolo[3,4-c]pyridin-5-yl)butyl]amino}-N-1,3-thiazol-2-ylbenzenesulfonamide], the IC50 in test [1] was 23 nM. Further, the “ratio” value in test [2] is on record as more than 1434.

As to `O=S(=O)(Nc1nccs1)c1cc(Cl)c(NCCCCN[C@@H]2[C@H]3CC[C@@H]2NC3)cc1F` [Ex 1-25, 4-({4-[(1S,4S,7R)-2-azabicyclo[2.2.1]hept-7-ylamino]butyl}amino)-5-chloro-2-fluoro-N-1,3-thiazol-2-ylbenzenesulfonamide], the IC50 in test [1] was determined as 21 nM. Further, in test [2], the “ratio” value is more than 1590.

For `N#Cc1cc(S(=O)(=O)Nc2nccs2)c(F)cc1NCCCCN[C@@H]1CCNC1` [Ex 16-39, 5-cyano-2-fluoro-4-({4-[(3R)-pyrrolidin-3-ylamino]-butyl}amino)-N-1,3-thiazol-2-yl-benzenesulfonamide], in test [1], the IC50 came to 36 nM. In addition, the “ratio” value in test [2] is more than 917.

On to `N[C@@H]1CCN(CCCCNc2cc(F)c(S(=O)(=O)Nc3nccs3)cc2Cl)C1` [Ex 1-36, 4-({4-[(3R)-3-aminopyrrolidin-1-yl]butyl}amino)-5-chloro-2-fluoro-N-1,3-thiazol-2-ylbenzenesulfonamide], for which the IC50 in test [1] amounted to 18 nM. Further, in test [2], the “ratio” value is on record as more than 1830.

With `NCC1CCN(CCCCNc2cc(F)c(S(=O)(=O)Nc3nccs3)cc2Cl)C1` (stereo not shown) [Ex 1-47, 4-({4-[3-(aminomethyl)pyrrolidin-1-yl]butyl}amino)-5-chloro-2-fluoro-N-1,3-thiazol-2-ylbenzenesulfonamide], the IC50 in test [1] was found to be 22 nM. Also, in test [2], the “ratio” value is more than 1500.

As for `O=S(=O)(Nc1nccs1)c1cc(Cl)c(NCCCCNC[C@H]2C[C@@H](c3ccccc3)CN2)cc1F` [Ex 8-11, 5-chloro-2-fluoro-4-{[4-({[(2R,4S)-4-phenylpyrrolidin-2-yl]-methyl}amino)butyl]amino}-N-1,3-thiazol-2-yl-benzenesulfonamide], the half-maximal inhibitory concentration (IC50) in test [1] was found to be 14 nM. In test [2], the “ratio” value was more than 2360.

In the case of `O=S(=O)(Nc1nccs1)c1cc(Cl)c(NCCCCNCC2CCC(c3ccccc3)CN2)cc1F` (stereo not shown) [Ex 8-14, 5-chloro-2-fluoro-4-[(4-{[(5-phenyl-piperidin-2-yl)-methyl]amino}butyl)amino]-N-1,3-thiazol-2-yl-benzenesulfonamide], the IC50 in test [1] was determined as 14 nM. Also, the “ratio” value in test [2] stood at 2290.

With `CNCCNCCCCNc1cc(F)c(S(=O)(=O)Nc2ncns2)cc1F` [Ex 16-47, 2,5-difluoro-4-[(4-{[2-(methylamino)ethyl]amino}-butyl)amino]-N-1,2,4-thiadiazol-5-ylbenzene-sulfonamide], the half-inhibitory concentration (IC50) in test [1] was found to be 74 nM. The “ratio” value in test [2] is more than 460.

`CO[C@H]1CN[C@H](CNCCCCNc2cc(F)c(S(=O)(=O)Nc3nccs3)cc2Cl)C1` [Ex 8-16]: in test [1], the IC50 came out at 63 nM. The “ratio” value in test [2] is given as more than 520.

On to `CNCCNCCCCNc1cc(F)c(S(=O)(=O)Nc2nc(C)cs2)cc1Cl` [Ex 16-51, 5-chloro-2-fluoro-4-[(4-{[2-(methylamino)ethyl]amino}-butyl)amino]-N-(4-methyl-1,3-thiazol-2-yl)benzene-sulfonamide], for which the concentration for half-maximal inhibition (IC50) in test [1] worked out at 35 nM. In addition, in test [2], the “ratio” value is recorded as more than 943.

`NC[C@@H]1CCN1CCCCNc1cc(F)c(S(=O)(=O)Nc2ncc(F)s2)cc1Cl` [Ex 16-11, 4-({4-[(2S)-2-(aminomethyl)azetidin-1-yl]-butyl}amino)-5-chloro-2-fluoro-N-(5-fluoro-1,3-thiazol-2-yl)-benzene-sulfonamide]: the IC50 in test [1] stood at 15 nM. Further, in test [2], the “ratio” value is recorded as more than 1530.

On to `O=S(=O)(Nc1nccs1)c1cc(Cl)c(NCCCCN2CCC3CCC(C2)N3)cc1F` (stereo not shown) [Ex 1-52, 5-chloro-4-{[4-(3,9-diazabicyclo[4.2.1]non-3-yl)butyl]amino}-2-fluoro-N-1,3-thiazol-2-ylbenzenesulfonamide], for which, in test [1], the IC50 was found to be 96 nM. In addition, the “ratio” value in test [2] is reported as more than 343.

In the case of `NC[C@H]1CCN1CCCCNc1cc(F)c(S(=O)(=O)Nc2ncns2)cc1Cl` [Ex 16-02, 4-({4-[(2R)-2-(aminomethyl)-azetidin-1-yl]butyl}amino)-5-chloro-2-fluoro-N-1,2,4-thiadiazol-5-yl-benzene-sulfonamide], the IC50 in test [1] turned out to be 20 nM. In addition, in test [2], the “ratio” value was more than 1650.

`O=S(=O)(Nc1nccs1)c1cc(Cl)c(NCCCCNC2C[C@@H]3C[C@H]2CN3)cc1F` (stereo partly drawn) [Ex 1-24, 4-({4-[(1S,4S)-2-azabicyclo[2.2.1]hept-5-ylamino]butyl}amino)-5-chloro-2-fluoro-N-1,3-thiazol-2-ylbenzenesulfonamide]: the IC50 in test [1] is 17 nM. In addition, the “ratio” value in test [2] is more than 1940.
